# Data from patent US12195427B2, “MASP-2 inhibitors and methods of use” (priority 2018, dated 2025).
# Structures can show the parent of a compound that is named as a salt.
# What was measured:
# [1] = target: MASP-2 CCP2-SP (Homo sapiens (Human), UniProt O00187); test: MASP-2 co-crystallization, X-ray crystallography and structure analysis (H-bonds, van der Waals contacts); design: van der Waals contact distance, MASP-2 HIS 483 atom CD2 / van der Waals contact distance, MASP-2 HIS 483 atom NE2 / van der Waals contact distance, SER 654 C to compound atom / van der Waals contact distance, SER 654 O to compound atom / van der Waals contact distance, TRP 655 C to compound atom / van der Waals contact distance, MASP-2 GLY 528 atom CA / van der Waals contact distance TRP 655 atom CZ3 / van der Waals contact distance TRP 655 atom N / van der Waals contact distance TRP 655 atom CE3 / van der Waals contact distance GLY 656 atom C / van der Waals contact distance GLY 656 atom CA / van der Waals contact distance GLY 656 atom O / van der Waals contact distance, MASP-2 TYR 607 atom CD1 / van der Waals contact distance, MASP-2 PRO 606 atom O / d(C3,CA1) / d(CA1,N1)2 / d(H4,O1) / d(H4,O2) / d(O1,O2) / d(CA1,O2) / d(CA6,O1) / d(CA6,O2) / d(CA1,C5) / d(O2,H3) / d(N2,C2) / d(CA5,N2) / d(N2,C4) / d(N2,C6) / d(N2,CA3) / d(N2,O3) / d(O4,H2): unit not given beside the values; settings: for H-bond distance to MASP-2 ASP 627 atom OD2: ASP 627 OD2; for H-bond distance to MASP-2 GLY 656 atom N: GLY 656 N; for H-bond distance to MASP-2 GLY 656 atom O: GLY 656 O; for H-bond distance to MASP-2 SER 654 atom O: SER 654 O; for H-bond distance to MASP-2 SER 657 atom O: SER 657 O; for van der Waals contact distance, MASP-2 HIS 483 atom CD2 / van der Waals contact distance, MASP-2 HIS 483 atom NE2: Table A2-1;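 for Ligand-pharmacophore element distance, pharmacophore element C2: distance from averaged pharmacophore element to bound ligand; missing value means element absent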;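 for Ligand-pharmacophore element distance, pharmacophore element C3: distance from averaged pharmacophore element to bound ligand; missing value means element absent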;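 for Ligand-pharmacophore element distance, pharmacophore element C4: distance from averaged pharmacophore element to bound ligand; missing value means element absent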;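 for Ligand-pharmacophore element distance, pharmacophore element C5: distance from averaged pharmacophore element to bound ligand; missing value means element absent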
# Chain of MASP-2 CCP2-SP (O00187 445-686): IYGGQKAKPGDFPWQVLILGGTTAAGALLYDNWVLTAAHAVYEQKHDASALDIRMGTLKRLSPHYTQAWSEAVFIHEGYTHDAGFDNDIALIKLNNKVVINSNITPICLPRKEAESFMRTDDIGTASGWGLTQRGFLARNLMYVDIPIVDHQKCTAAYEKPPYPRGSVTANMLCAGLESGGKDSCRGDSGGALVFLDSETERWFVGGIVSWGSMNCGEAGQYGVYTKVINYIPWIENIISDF
# Chain of MASP-2 CCP2-SP (O00187 364-432 partner): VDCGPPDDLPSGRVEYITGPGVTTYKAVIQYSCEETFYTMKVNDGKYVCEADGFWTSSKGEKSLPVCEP
# Method in brief: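 Inhibitor complexes were obtained by soaking crystals of E. coli-derived human MASP-2 CCP2-SP. Synchrotron diffraction at 1.0 wavelength, molecular replacement and partial refinement gave the models; one pose per ligand was chosen for contact analysis.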
# [2] = target: MASP-2 (CCP1-CCP2-SP) (Homo sapiens (Human), UniProt O00187); test: Enzymatic Assay for MASP-2 (fluorogenic substrate); format: biochemical
# Chain of MASP-2 (CCP1-CCP2-SP) (O00187 445-686): as the sequence (O00187 445-686) above
# [3] = target: human α-thrombin (Homo sapiens (Human), UniProt P00734); test: Enzymatic Assay for Thrombin (Boc-VPR-AMC); format: biochemical
# [4] = Table A5-1 pharmacophore: distance between elements, S2/S1 region
# [5] = Table A5-2 pharmacophore distance, S3/S4 region
# [6] = Table A7-1, between pharmacophore elements of the bound compound
# [7] = Table A8-6, nearest protein atom in cell to the left
smiles,measurement,setting,value
C[C@H](NC(=O)[C@H]1Cc2c([nH]c3ccccc23)CN1)C(=O)NCc1ccc(C(=N)N)cc1 [compound 1097],H-bond distance to MASP-2 ASP 627 atom OD2,[1]; Table A1 (H-Bonds),2.74
same,H-bond distance to MASP-2 GLY 656 atom N,[1]; Table A1 (H-Bonds),3.12
same,H-bond distance to MASP-2 GLY 656 atom O,[1]; Table A1 (H-Bonds),2.98
same,H-bond distance to MASP-2 SER 628 atom O,"[1]; Table A1 (H-Bonds), SER 628 O",3.03
same,H-bond distance to MASP-2 SER 654 atom O,[1]; Table A1 (H-Bonds),2.81
same,H-bond distance to MASP-2 SER 657 atom O,[1]; Table A1 (H-Bonds),2.74
same,"van der Waals contact distance, MASP-2 HIS 483 atom CD2",[1],3.63
same,"van der Waals contact distance, MASP-2 HIS 483 atom NE2",[1],3.53
same,"van der Waals contact distance, MASP-2 PRO 606 atom C",[1]; Table A2-4,3.74
same,"van der Waals contact distance, MASP-2 PRO 606 atom CB",[1]; Table A2-4,3.84
same,"van der Waals contact distance, MASP-2 PRO 606 atom CG",[1]; Table A2-4,3.82
same,"van der Waals contact distance, MASP-2 PRO 606 atom O",[1]; Table A2-4,3.33
same,"van der Waals contact distance, MASP-2 TYR 607 atom CA",[1]; Table A2-4,3.79
same,"van der Waals contact distance, MASP-2 amino acid atom to compound atom","[1]; Table A2-9 second part, ARG 630, AA atoms N, NE, NH1",3.71
same,"van der Waals contact distance, SER 654 C to compound atom",[1]; Table A2-11,3.73
same,van der Waals contact distance GLY 656 atom C,"[1]; Table A2-13, MASP-2 GLY 656 C",3.46
same,van der Waals contact distance SER 657 atom C,"[1]; Table A2-14, MASP-2 SER 657 C, columns c12-c13 (inferred)",3.52
same,Ki,[2],< 0.5 µM
same,Ki,[3],< 0.5 µM
"C[C@H](NC(=O)[C@H]1C[C@H](Cc2ccccc2)CN1)C(=O)NCc1cnc2c(c1)c(Cl)cn2C [compound 1450, (2R,4S)-4-Benzyl-N—((S)-1-(((3-chloro-1-methyl-1H-pyrrolo[2,3-b]pyridin-5-yl)methyl)amino)-1-oxopropan-2-yl)pyrrolidine-2-carboxamide Dihydrochloride]",H-bond distance to MASP-2 GLY 656 atom N,[1]; Table A1 (H-Bonds),3.04
same,H-bond distance to MASP-2 GLY 656 atom O,[1]; Table A1 (H-Bonds),2.78
same,H-bond distance to MASP-2 SER 654 atom O,[1]; Table A1 (H-Bonds),2.97
same,"van der Waals contact distance, MASP-2 amino acid atom to compound atom",[1]; Table A2,3.44
same,"van der Waals contact distance, MASP-2 HIS 483 atom CD2",[1],3.9
same,"van der Waals contact distance, MASP-2 HIS 483 atom NE2",[1],3.88
same,"van der Waals contact distance, MASP-2 GLY 528 atom CA",[1]; Table A2-2,3.89
same,"van der Waals contact distance, SER 654 C to compound atom",[1]; Table A2-11,3.81
same,van der Waals contact distance GLY 656 atom CA,"[1]; Table A2-13, MASP-2 GLY 656 CA",3.75
same,van der Waals contact distance TRP 655 atom N,"[1]; Table A2-13, MASP-2 TRP 655 N",3.66
same,Ki,[3],2.5 to 10 µM
C[C@H](NC(=O)[C@H](N)C1Cc2ccccc2C1)C(=O)NCc1ccc2nc(N)[nH]c2c1 [compound 1059],H-bond distance to MASP-2 ASP 627 atom OD1,"[1]; Table A1 (H-Bonds), ASP 627 OD1",2.99
same,H-bond distance to MASP-2 ASP 627 atom OD2,[1]; Table A1 (H-Bonds),2.95
same,H-bond distance to MASP-2 GLN 665 atom O,"[1]; Table A1 (H-Bonds), GLN 665 O",3.31
same,H-bond distance to MASP-2 GLY 656 atom N,[1]; Table A1 (H-Bonds),3.13
same,H-bond distance to MASP-2 GLY 656 atom O,[1]; Table A1 (H-Bonds),2.94
same,H-bond distance to MASP-2 SER 654 atom O,[1]; Table A1 (H-Bonds),2.95
same,H-bond distance to MASP-2 SER 657 atom O,[1]; Table A1 (H-Bonds),2.77
same,H-bond distance to MASP-2 SER 657 atom OG,"[1]; Table A1 (H-Bonds), SER 657 OG",2.94
same,"van der Waals contact distance, MASP-2 HIS 483 atom CD2",[1],3.69
same,"van der Waals contact distance, MASP-2 TYR 607 atom CD1",[1]; Table A2-4,3.89
same,"van der Waals contact distance, MASP-2 amino acid atom to compound atom","[1]; Table A2-5: TYR 607 (CE1, CE2, OH), PRO 608 (CD, CG), SER 611 (CA)",3.89
same,"van der Waals contact distance, MASP-2 amino acid atom to compound atom","[1]; Table A2-9, ARG 630, AA atoms CG, CZ",3.14
same,"van der Waals contact distance, VAL 653 CG1 to compound atom",[1]; Table A2-11,3.81
same,van der Waals contact distance TRP 655 atom CZ3,"[1]; Table A2-13, MASP-2 TRP 655 CZ3",3.84
same,van der Waals contact distance TRP 655 atom O,"[1]; Table A2-13, MASP-2 TRP 655 O",3.88
same,"Ligand-pharmacophore element distance, pharmacophore element C2","[1]; Table A4-1, element C2",1.86
same,"Ligand-pharmacophore element distance, pharmacophore element C3","[1]; Table A4-1, element C3",0
same,"Ligand-pharmacophore element distance, pharmacophore element C4","[1]; Table A4-1, element C4",0
same,"Ligand-pharmacophore element distance, pharmacophore element C5","[1]; Table A4-1, element C5",0
same,"Ligand-pharmacophore element distance, pharmacophore element C6","[1]; Table A4-1, element C6",0
same,"Ligand-pharmacophore element distance, pharmacophore element C7","[1]; Table A4-1, element C7",0
same,"Ligand-pharmacophore element distance, pharmacophore element CA1","[1]; Table A4-1, element CA1",1.27
same,"Ligand-pharmacophore element distance, pharmacophore element CA2","[1]; Table A4-1, element CA2",0.8
same,"Ligand-pharmacophore element distance, pharmacophore element CA3","[1]; Table A4-1, element CA3",0
same,"Ligand-pharmacophore element distance, pharmacophore element CA4","[1]; Table A4-1, element CA4",0
same,"Ligand-pharmacophore element distance, pharmacophore element CA5","[1]; Table A4-1, element CA5",0
same,"Ligand-pharmacophore element distance, pharmacophore element CA6","[1]; Table A4-1, element CA6",0
same,"d(CA1,N1)",[1]; [4],1.85
same,"d(CA1,O1)",[1]; [4],5.32
same,"d(CA1,O2)",[1]; [4],5.00
same,"d(H4,O1)",[1]; [4],4.89
same,"d(H4,O2)",[1]; [4],4.48
same,"d(O1,O2)",[1]; [4],3.20
same,"d(N2,C2)",[1]; [5],3.70
same,"d(N2,CA2)",[1]; [5],5.88
same,"d(O2,H3)",[1]; [5],4.97
same,"d(O2,N2)",[1]; [5],2.67
same,"a(CA1, O1, O2)",[1]; Table A6-1 pharmacophore angle,102.43
same,"a(O1, O2, H4)",[1]; Table A6-1 pharmacophore angle,140.37
same,"A(N1, CA1, O1) a)","[1]; Table A6-1 pharmacophore angle, all compounds with protonatable center N1 except Methyl-amino-pyridine",176.16
same,"a(O1, O2, H3)",[1]; Table A6-2 pharmacophore angle,148.70
same,"a(O1, O2, N2)",[1]; Table A6-2 pharmacophore angle,132.46
same,"a(O2, N2, C2)",[1]; Table A6-2 pharmacophore angle,139.14
same,"a(O2, N2, CA2)",[1]; Table A6-2 pharmacophore angle,153.47
same,"Pharmacophore torsion angle a(H4, O1, O2, H3)",[1]; [6],47.74
same,"Pharmacophore torsion angle a(H4, O1, O2, N2)",[1]; [6],121.97
same,"Pharmacophore torsion angle a(N1, CA1, O2, H4)",[1]; [6],−131.19
same,"Pharmacophore torsion angle a(O1, H4, O2, CA1)",[1]; [6],−89.48
same,"Pharmacophore torsion angle a(O1, O2, N2, C2)",[1]; [6],129.30
same,"Pharmacophore torsion angle a(O1, O2, N2, CA2)","[1]; Table A7-2, between pharmacophore elements of the bound compound",134.69
same,Pharmacophore protein distance to MET_658 (first MET_658 column),"[1]; Table A8-6, 6th residue column, nearest protein atom in cell to the left",1.94
same,Pharmacophore protein distance to GLY_528,[1]; [7],3.81
same,Pharmacophore protein distance to PHE_529,[1]; [7],2.97
same,Pharmacophore protein distance to PRO_608,[1]; [7],3.70
same,Pharmacophore protein distance to SER_611,[1]; [7],2.61
same,Pharmacophore protein distance to TRP_655,"[1]; Table A8-6, pharmacophore elements C6, CA3, O3, H1, nearest protein atom in cell to the left",3.64
same,Ki,[3],> 25 µM
